Data set [1] has as its target T1, CFTR-mediated short-circuit current in F508del/MF-HBE cells (Homo sapiens, UniProt P13569, DEL508-508).
T1 construct: endogenous in cells; host or cells: primary human bronchial epithelial cells from CF subjects (F508del/MF)
In words: HBE assay: Ussing chamber assay of CFTR-mediated short-circuit currents. The conditions noted are these: 20% human serum; for HBE Activity at 10 μM: single fixed concentration of 10 μM in combination with 1 μM Ivacaftor; for HBE Activity at 10 μM / EC50: 18-24 hours; for HBE Max. activity / EC50: F508del/MF-HBE; for HBE Max. activity: in combination with 1 μM Ivacaftor, compared to known Vertex corrector with 18 μM Tezacaftor and 1 μM Ivacaftor; for EC50: range of concentrations in combination with 1 μM Ivacaftor. Format: cell-based. On the procedure:
Ussing chamber experiments were performed using human bronchial epithelial (HBE) cells derived from CF subjects heterozygous for F508del and a minimal function CFTR mutation (F508del/MF-HBE) and cultured as previously described (Neuberger T, Burton B, Clark H, Van Goor F Methods Mol Biol 2011:741:39-54). After four days the apical media was removed, and the cells were grown at an air liquid interface for >14 days prior to use.
To isolate the CFTR-mediated short-circuit (ISC) current, F508del/MF-HBE grown on Costar® Snapwell™ cell culture inserts were mounted in an Ussing chamber and the transepithelial ISC was measured under voltage-clamp recording conditions (Vhold=0 mV) at 37° C. The basolateral solution contained (in mM) 145 NaCl, 0.83K2HPO4, 3.3 KH2PO4, 1.2 MgCl2, 1.2 CaCl2), 10 Glucose, 10 HEPES (pH adjusted to 7.4 with NaOH) and the apical solution contained (in mM) 145 NaGluconate, 1.2 MgCl2, 1.2 CaCl2), 10 glucose, 10 HEPES (pH adjusted to 7.4 with NaOH) and 30 μM amiloride to block the epithelial sodium channel. Forskolin (20 μM) was added to the apical surface to activate CFTR, followed by apical addition of a CFTR inhibitor cocktail consisting of BPO, GlyH-101, and CFTR inhibitor 172 (each at 20 μM final assay concentration) to specifically isolate CFTR currents. The CFTR-mediated ISC (μA/cm^2) for each condition was determined from the peak forskolin response to the steady-state current following inhibition.
The activity of the CFTR corrector compounds on the CFTR-mediated ISC was determined in Ussing chamber studies as described above. The F508del/MF-HBE cell cultures were either incubated with the corrector compounds at a range of concentrations in combination with 1 μM Ivacaftor or were incubated with the corrector compounds at a single fixed concentration of 10 μM in combination with 1 μM Ivacaftor for 18-24 hours at 37° C. and in the presence of 20% human serum. The concentration of corrector compounds with 1 μM Ivacaftor during the 18-24 hours incubations was kept constant throughout the Ussing chamber measurement of the CFTR-mediated ISC to ensure compounds were present throughout the entire experiment.

The conditions of data set [2]: amide bond, DMF.
The target in data set [3] is CFTR-mediated chloride transport in human intestinal epithelial enteroid cells (Homo sapiens, UniProt P13569). In words: Membrane potential dye, Enteroid Assay A. It counts as cell-based. Particulars: for Ent. A Max Activity: % of chloride transport of triple combination control: 3 μM (S)-N-((6-aminopyridin-2-yl)sulfonyl)-6-(3-fluoro-5-isobutoxyphenyl)-2-(2,2,4-trimethylpyrrolidin-1-yl)nicotinamide, 3 μM tezacaftor, 300 nM acute ivacaftor. As for the experimental part:
Base medium (ADF+++) consisted of Advanced DMEM/Ham's F12, 2 mM Glutamax, 10 mM HEPES, […] penicillin/streptomycin.
Intestinal enteroid maintenance medium (IEMM) consisted of ADF+++, 1×B27 supplement, 1×N2 supplement, 1.25 mM N-acetyl cysteine, 10 mM Nicotinamide, 50 ng/mL hEGF, 10 nM Gastrin, 1 μg/mL hR-spondin-1, 100 ng/mL hNoggin, TGF-b type 1 inhibitor A-83-01, 100 μg/mL Primocin, 10 μM P38 MAPK inhibitor SB202190.
Bath 1 Buffer consisted of 1 mM MgCl2, 160 mM NaCl, 4.5 mM KCl, 10 mM HEPES, 10 mM Glucose, 2 mM CaCl2).
Chloride Free Buffer consisted of 1 mM Magnesium Gluconate, 2 mM Calcium Gluconate, 4.5 mM Potassium Gluconate, 160 mM Sodium Gluconate, 10 mM HEPES, 10 mM Glucose.
BathI Dye Solution consisted of Bath 1 Buffer, 0.04% Pluronic F127, 20 μM Methyl Oxonol, 30 μM CaCCinh-A01, 30 μM Chicago Sky Blue.
Chloride Free Dye Solution consisted of Chloride Free Buffer, 0.04% Pluronic F127, 20 μM Methyl Oxonol, 30 μM CaCCinh-A01, 30 μM Chicago Sky Blue.
Chloride Free Dye Stimulation Solution consisted of Chloride Free Dye Solution, 10 μM forskolin, 100 μM IBMX, and 300 nM Compound III.
Human intestinal epithelial enteroid cells were obtained from the Hubrecht Institute for Developmental Biology and Stem Cell Research, Utrecht, The Netherlands and expanded in T-Flasks as previously described (Dekkers J F, Wiegerinck C L, de Jonge H R, Bronsveld I, Janssens H M, de Winter-de Groot K M, Brandsma A M, de Jong N W M, Bijvelds M J C, Scholte B J, Nieuwenhuis E E S, van den Brink S, Clevers H, van der Ent C K, Middendorp S and M Beekman J M. A functional CFTR assay using primary cystic fibrosis intestinal organoids. Nat Med. 2013 July; 19(7):939-45.).
Cells were recovered in cell recovery solution, collected by centrifugation at 650 rpm for 5 minutes at 4° C., resuspended in TrypLE and incubated for 5 minutes at 37° C. Cells were then collected by centrifugation at 650 rpm for 5 minutes at 4° C. and resuspended in IEMM containing 10 μM ROCK inhibitor (RI). The cell suspension was passed through a 40 μm cell strainer and resuspended at 1×10^6 cells/mL in IEMM containing 10 μM RI. Cells were seeded at 5000 cells/well into multi-well plates and incubated for overnight at 37° C., 95% humidity and 5% CO2 prior to assay.
Enteroid cells were incubated with test compound in IEMM for 18-24 hours at 37° C., 95% humidity and 5% C02. […] Briefly, cells were washed 5 times in Bath 1 Buffer. Bath 1 Dye Solution was added, and the cells were incubated for 25 minutes at room temperature. Following dye incubation, cells were washed 3 times in Chloride Free Dye Solution. Chloride transport was initiated by addition of Chloride Free Dye Stimulation Solution and the fluorescence signal was read for 15 minutes. […] Chloride transport was then expressed as a percentage of the chloride transport following treatment with 3 μM (S)—N-((6-aminopyridin-2-yl)sulfonyl)-6-(3-fluoro-5-isobutoxyphenyl)-2-(2,2,4-trimethylpyrrolidin-1-yl)nicotinamide, 3 μM (R)-1-(2,2-difluorobenzo[d][1,3]dioxol-5-yl)-N-(1-(2,3-dihydroxypropyl)-6-fluoro-2-(1-hydroxy-2-methylpropan-2-yl)-1H-indol-5-yl)cyclopropanecarboxamide and 300 nM acute N-[2,4-bis(1,1-dimethylethyl)-5-hydroxyphenyl]-1,4-dihydro-4-oxoquinoline-3-carboxamide triple combination control (% Activity).

Like-named read-outs stand apart in the source and are kept apart here.

T1 sequence (P13569 with tags, fused parts or gaps DEL508-508): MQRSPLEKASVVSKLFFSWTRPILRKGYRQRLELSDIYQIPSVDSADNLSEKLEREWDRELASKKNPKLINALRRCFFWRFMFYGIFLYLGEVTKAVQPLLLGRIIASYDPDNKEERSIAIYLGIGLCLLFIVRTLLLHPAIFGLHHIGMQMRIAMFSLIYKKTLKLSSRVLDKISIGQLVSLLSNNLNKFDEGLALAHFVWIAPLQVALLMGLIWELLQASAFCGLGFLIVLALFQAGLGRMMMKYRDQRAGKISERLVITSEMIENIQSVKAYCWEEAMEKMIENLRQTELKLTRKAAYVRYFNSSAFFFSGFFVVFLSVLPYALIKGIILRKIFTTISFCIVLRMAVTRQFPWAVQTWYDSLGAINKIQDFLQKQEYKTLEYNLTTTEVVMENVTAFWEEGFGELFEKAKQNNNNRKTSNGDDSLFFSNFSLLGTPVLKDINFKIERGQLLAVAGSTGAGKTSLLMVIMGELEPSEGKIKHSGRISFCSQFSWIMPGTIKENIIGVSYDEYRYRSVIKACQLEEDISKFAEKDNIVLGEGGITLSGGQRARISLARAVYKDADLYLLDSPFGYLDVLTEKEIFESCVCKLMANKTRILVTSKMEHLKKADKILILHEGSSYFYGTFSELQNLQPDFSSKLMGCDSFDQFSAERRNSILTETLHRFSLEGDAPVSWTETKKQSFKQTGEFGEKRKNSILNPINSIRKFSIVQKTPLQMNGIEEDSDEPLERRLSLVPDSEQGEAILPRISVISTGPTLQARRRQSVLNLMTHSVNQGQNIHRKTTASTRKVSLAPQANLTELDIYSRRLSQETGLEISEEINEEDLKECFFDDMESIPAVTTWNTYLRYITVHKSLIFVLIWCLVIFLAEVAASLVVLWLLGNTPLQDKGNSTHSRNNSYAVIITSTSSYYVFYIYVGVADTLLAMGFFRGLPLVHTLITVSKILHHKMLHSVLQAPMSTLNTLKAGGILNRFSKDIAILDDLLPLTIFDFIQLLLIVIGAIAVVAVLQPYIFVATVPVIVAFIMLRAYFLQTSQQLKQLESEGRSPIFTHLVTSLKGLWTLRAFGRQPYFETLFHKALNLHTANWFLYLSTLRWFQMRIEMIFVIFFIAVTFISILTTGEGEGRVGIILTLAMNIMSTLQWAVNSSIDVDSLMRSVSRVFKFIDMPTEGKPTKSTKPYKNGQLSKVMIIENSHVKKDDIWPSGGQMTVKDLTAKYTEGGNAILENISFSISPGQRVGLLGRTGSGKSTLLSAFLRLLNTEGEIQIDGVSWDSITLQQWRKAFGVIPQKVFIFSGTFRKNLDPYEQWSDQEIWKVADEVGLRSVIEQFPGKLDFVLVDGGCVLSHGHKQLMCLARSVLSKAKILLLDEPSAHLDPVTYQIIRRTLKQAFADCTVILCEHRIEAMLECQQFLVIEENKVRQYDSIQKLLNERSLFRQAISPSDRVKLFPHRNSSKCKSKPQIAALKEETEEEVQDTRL
Chain of CFTR-mediated chloride transport in human intestinal epithelial enteroid cells (P13569 with tags, fused parts or gaps DEL508-508): as above

As to `Cc1cccc(C)c1-c1cc2nc(n1)NS(=O)(=O)c1cccc(c1)C(=O)N([C@H]1CC3(C1)C[C@H](C(C)(C)O)C3)[C@H](CC(C)(C)C)CC2` (single isomer, unassigned) [Compound 65], in data set [1], the “HBE Activity at 10 μM” value is recorded as “+++ (+++ is >60%)”.
Same read-out and setting: in the case of `Cc1cccc(C)c1-c1cc2nc(n1)NS(=O)(=O)c1cccc(c1)C(=O)N([C@H]1CC3(C1)C[C@H](C(C)(C)O)C3)[C@H](CC(C)(C)C)CC2` (single isomer, unassigned) [Compound 66] it was “+++ (+++ is >60%)”.
Turning to `Cc1cccc(C)c1-c1cc2nc(n1)NS(=O)(=O)c1cccc(c1)C(=O)N[C@H](C)CN2Cc1ccccc1` [Compound 38, (11R)-9-benzyl-6-(2,6-dimethylphenyl)-11-methyl-2,2-dioxo-2λ6-thia-3,5,9,12,19-pentazatricyclo[12.3.1.14,8]nonadeca-1(18),4(19),5,7,14,16-hexaen-13-one], in data set [2] (from Cc1cccc(C)c1-c1cc(N(Cc2ccccc2)C[C@@H](C)N)nc(NS(=O)(=O)c2cccc(C(=O)O)c2)n1, 13-membered ring, HATU/Et3N, 44.7 mM, 25.0 °C, 16.0 h), the ring closure, yield after HPLC turned out to be 23%. For the same compound, the “Ent. A Max Activity” value in data set [3] is recorded as “+ (+ is <30%)”.
For the compound `Cc1cccc(C)c1-c1cc2nc(n1)NS(=O)(=O)c1cccc(c1)C(=O)NCCN2CC(C)C` [Compound 39, 6-(2,6-Dimethylphenyl)-9-isobutyl-2,2-dioxo-2 λ6-thia-3,5,9,12,19-pentazatricyclo[12.3.1.14,8]nonadeca-1(18),4(19),5,7,14,16-hexaen-13-one], the ring closure, yield after HPLC in data set [2] (from Cc1cccc(C)c1-c1cc(N(CCN)CC(C)C)nc(NS(=O)(=O)c2cccc(C(=O)O)c2)n1, 13-membered ring, HATU/Et3N, 25.3 mM, 25.0 °C, 0.5 h) worked out at 35%. In addition, the “Ent. A Max Activity” value in data set [3] is given as “+ (+ is <30%)”.
One may read the EC50 as the concentration at which the effect is half-maximal. With `Cc1cccc(C)c1-c1cc2nc(n1)NS(=O)(=O)c1cccc(c1)C(=O)NCC1(CCCCC1)CN2` [Compound 40, 6-(2,6-Dimethylphenyl)-2,2-dioxo-spiro[2 λ6-thia-3,5,9,13,20-pentazatricyclo[13.3.1.14,8]icosa-1(19),4(20),5,7,15,17-hexaene-11,1′-cyclohexane]-14-one], the ring closure, yield after HPLC in data set [2] (from Cc1cccc(C)c1-c1cc(NCC2(CN)CCCCC2)nc(NS(=O)(=O)c2cccc(C(=O)O)c2)n1, 14-membered ring, HATU/Et3N, 58.9 mM, 0.5 h) was found to be 33%. Also, in data set [3], the “Ent. A Max Activity” value is given as “+ (+ is <30%)”. Moreover, in data set [3] (enteroid cells, 18-24 hours incubation, acute 10 μM forskolin and 300 nM ivacaftor, read-out: Ent. A EC50), the EC50 was in the range of 1000 to 3000 nM.
Consider `Cc1cccc(C)c1-c1cc2nc(n1)NS(=O)(=O)c1cccc(c1)C(=O)N(Cc1ncc(OC(C)C)cn1)[C@H](CC(C)C)CC2` [Compound 58], for which, in data set [1], the “HBE Max. activity” value is reported as “+++ (+++ is >60%)” and the EC50 is below 1000 nM.
For `Cc1cccc(C)c1-c1cc2nc(n1)NS(=O)(=O)c1cccc(c1)C(=O)N(Cc1ncc(OC3CCC3)cn1)[C@H](CC(C)C)CC2` [Compound 59], in data set [1], the “HBE Max. activity” value is reported as “+++ (+++ is >60%)” and the EC50 is below 1000 nM.
Consider `Cc1cccc(C)c1-c1cc2nc(n1)NS(=O)(=O)c1cccc(c1)C(=O)N(Cc1nccc(N(C)C(C)C)n1)[C@H](CC(C)C)CC2` [Compound 60, (11S)-6-(2,6-dimethylphenyl)-11-isobutyl-12-[[4-[isopropyl(methyl)amino]pyrimidin-2-yl]methyl]-2,2-dioxo-2λ^6-thia-3,5,12,19-tetrazatricyclo[12.3.1.14,8]nonadeca-1(18),4(19),5,7,14,16-hexaen-13-one], for which the ring closure, yield after HPLC in data set [2] (from Cc1cccc(C)c1-c1cc(CC[C@@H](CC(C)C)NCc2nccc(N(C)C(C)C)n2)nc(NS(=O)(=O)c2cccc(C(=O)O)c2)n1, 13-membered ring, HATU/DIEA, 12.4 mM, 25.0 °C, 2.0 h) stood at 49%. In addition, in data set [1], the “HBE Max. activity” value is listed as “+++ (+++ is >60%)” and the EC50 was below 1000 nM.
In data set [2] (from Cc1cccc(C)c1-c1cc(CC[C@@H](CC(C)(C)C)NCc2ncc(OC(C)C)cn2)nc(NS(=O)(=O)c2cccc(C(=O)O)c2)n1, 13-membered ring, CDMT/NMM, 47.5 mM, 18.0 h), `Cc1cccc(C)c1-c1cc2nc(n1)NS(=O)(=O)c1cccc(c1)C(=O)N(Cc1ncc(OC(C)C)cn1)[C@H](CC(C)(C)C)CC2` [Compound 62, (11S)-6-(2,6-Dimethylphenyl)-11-(2,2-dimethylpropyl)-12-[(5-isopropoxypyrimidin-2-yl)methyl]-2,2-dioxo-2 λ6-thia-3,5,12,19-tetrazatricyclo[12.3.1.14,8]nonadeca-1(18),4(19),5,7,14,16-hexaen-13-one] registered a ring closure, yield after HPLC of 79%. For the same compound, in data set [1], the “HBE Max. activity” value was “+++ (+++ is >60%)” and the EC50 was below 1000 nM.
Regarding `Cc1cccc(C)c1-c1cc2nc(n1)NS(=O)(=O)c1cccc(c1)C(=O)N(C1CC3(CC3)C1)[C@H](CC(C)(C)C)CC2` [Compound 63], the “HBE Activity at 10 μM” value in data set [1] was “+++ (+++ is >60%)”.
`Cc1cccc(C)c1-c1cc2nc(n1)NS(=O)(=O)c1cccc(c1)C(=O)N(Cc1ncc(OC3CCC3)cn1)[C@H](CC(C)(C)C)CC2` [Compound 64, (11S)-12-[[5-(Cyclobutoxy)pyrimidin-2-yl]methyl]-6-(2,6-dimethylphenyl)-11-(2,2-dimethylpropyl)-2,2-dioxo-2λ6-thia-3,5,12,19-tetrazatricyclo[12.3.1.14,8]nonadeca-1(18),4(19),5,7,14,16-hexaen-13-one] gave a ring closure, yield after HPLC in data set [2] (from Cc1cccc(C)c1-c1cc(CC[C@@H](CC(C)(C)C)NCc2ncc(OC3CCC3)cn2)nc(NS(=O)(=O)c2cccc(C(=O)O)c2)n1, 13-membered ring, CDMT/NMM, 44.1 mM, 17.0 h) of 73%. Further, in data set [1], the “HBE Activity at 10 μM” value is listed as “+++ (+++ is >60%)”.

The values above are taken from patent US12612416B2, “Modulators of cystic fibrosis transmembrane conductance regulator” (VERTEX PHARMACEUTICALS INCORPORATED, priority 2020, dated 2026).
